The target in one experiment is T1, TLR7 (Homo sapiens, UniProt Q9NYK1).
T1 construct: expressed in transfected cells; host or cells: HEK/293 cells carrying TLR7 and an NF-kB luciferase reporter
T1 sequence (Q9NYK1 27-1049): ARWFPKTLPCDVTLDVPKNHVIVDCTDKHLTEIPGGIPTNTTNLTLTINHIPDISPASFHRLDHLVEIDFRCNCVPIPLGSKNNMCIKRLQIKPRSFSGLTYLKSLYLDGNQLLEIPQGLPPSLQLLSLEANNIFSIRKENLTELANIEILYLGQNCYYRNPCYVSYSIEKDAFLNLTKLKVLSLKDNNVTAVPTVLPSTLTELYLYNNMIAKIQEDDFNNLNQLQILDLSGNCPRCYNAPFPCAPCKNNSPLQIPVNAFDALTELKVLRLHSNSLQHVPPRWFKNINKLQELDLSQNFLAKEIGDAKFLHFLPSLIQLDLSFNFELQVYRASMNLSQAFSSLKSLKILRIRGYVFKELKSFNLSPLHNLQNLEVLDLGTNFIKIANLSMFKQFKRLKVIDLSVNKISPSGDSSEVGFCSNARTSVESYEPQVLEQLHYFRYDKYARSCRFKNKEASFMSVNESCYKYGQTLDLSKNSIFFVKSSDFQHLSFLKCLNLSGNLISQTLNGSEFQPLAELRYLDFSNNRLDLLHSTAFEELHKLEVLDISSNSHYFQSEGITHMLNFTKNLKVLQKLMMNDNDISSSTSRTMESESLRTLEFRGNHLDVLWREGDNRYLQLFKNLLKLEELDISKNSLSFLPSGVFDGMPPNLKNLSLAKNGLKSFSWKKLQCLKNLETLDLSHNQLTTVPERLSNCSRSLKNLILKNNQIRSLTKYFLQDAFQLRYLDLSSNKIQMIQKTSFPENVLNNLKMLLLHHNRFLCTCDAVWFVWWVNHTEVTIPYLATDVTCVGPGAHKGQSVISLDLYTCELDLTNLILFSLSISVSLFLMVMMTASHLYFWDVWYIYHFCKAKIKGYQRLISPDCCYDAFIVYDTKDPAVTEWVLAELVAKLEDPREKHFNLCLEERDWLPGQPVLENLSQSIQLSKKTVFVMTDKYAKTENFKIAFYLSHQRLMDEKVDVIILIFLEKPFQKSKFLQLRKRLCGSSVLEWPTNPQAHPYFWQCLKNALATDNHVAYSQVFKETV
Kind of experiment: HEK/293 TLR7 Cell Assay. The format is cell-based. As to conditions: TLR7/NFKb HEK cells, R848 agonist 10 uM final concentration, Steady-Glo readout; read-out: TLR7 potency. The method, boiled down:
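TLR7/NF-κB reporter HEK293 cells, 5000/well, cultured 24 h, then preincubated 30 min with compound before R848 agonist (10 uM final). After 5 h stimulation, Steady-Glo luciferase luminescence read.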

Another experiment deals with T2, TLR8 (Homo sapiens, UniProt Q9NR97).
T2 construct: expressed in transfected cells; host or cells: HEK/293 reporter cells (NF-kB luciferase)
T2 sequence (Q9NR97 27-1041): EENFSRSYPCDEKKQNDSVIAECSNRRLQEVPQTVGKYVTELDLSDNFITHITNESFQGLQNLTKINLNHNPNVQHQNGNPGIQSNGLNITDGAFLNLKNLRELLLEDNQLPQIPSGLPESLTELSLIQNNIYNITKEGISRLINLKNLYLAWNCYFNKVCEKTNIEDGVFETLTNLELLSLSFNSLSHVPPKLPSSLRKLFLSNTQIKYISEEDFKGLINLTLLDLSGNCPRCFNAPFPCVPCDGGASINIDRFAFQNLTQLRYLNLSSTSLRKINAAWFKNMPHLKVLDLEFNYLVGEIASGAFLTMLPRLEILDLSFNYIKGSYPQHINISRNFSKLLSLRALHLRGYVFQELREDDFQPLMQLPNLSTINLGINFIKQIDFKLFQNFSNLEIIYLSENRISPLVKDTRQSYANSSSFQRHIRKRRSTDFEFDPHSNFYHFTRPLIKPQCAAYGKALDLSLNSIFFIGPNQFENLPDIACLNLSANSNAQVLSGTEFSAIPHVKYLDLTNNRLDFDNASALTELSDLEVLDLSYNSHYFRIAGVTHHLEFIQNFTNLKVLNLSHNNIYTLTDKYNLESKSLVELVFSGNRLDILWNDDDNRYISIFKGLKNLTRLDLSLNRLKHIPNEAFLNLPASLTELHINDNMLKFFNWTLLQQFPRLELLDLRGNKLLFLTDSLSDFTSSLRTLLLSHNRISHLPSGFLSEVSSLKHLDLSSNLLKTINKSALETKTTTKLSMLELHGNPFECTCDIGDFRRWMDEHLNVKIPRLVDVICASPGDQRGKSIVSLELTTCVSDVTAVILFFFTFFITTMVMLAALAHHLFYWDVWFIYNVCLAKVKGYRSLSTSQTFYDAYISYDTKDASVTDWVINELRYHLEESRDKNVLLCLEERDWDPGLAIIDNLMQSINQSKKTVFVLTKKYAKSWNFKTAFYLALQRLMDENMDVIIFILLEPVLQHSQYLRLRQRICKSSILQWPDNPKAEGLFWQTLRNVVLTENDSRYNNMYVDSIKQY
Kind of experiment: HEK/293 TLR8 Cell Assay. It counts as cell-based. As to conditions: HEK cells, R848 agonist 30 uM final concentration, Steady-Glo readout; read-out: TLR8 potency.

Each structure is given as a SMILES string.

For `C[C@H]1C[C@@H](NCC(=O)N2CC(O)C2)CN(c2ccc(C(F)(F)F)c3ncccc23)C1` [Example 51, 1-(3-Hydroxy-azetidin-1-yl)-2-[(3R,5S)-5-methyl-1-(8-trifluoromethyl-quinolin-5-yl)-piperidin-3-ylamino]-ethanone], the IC50 at TLR7 and at TLR8 was below 75 nM throughout.

As to `CN[C@@H](CO)C(=O)N[C@@H]1C[C@H](C)CN(c2ccc(C(F)(F)F)c3ncccc23)C1` [Example 168, (S)-3-Hydroxy-2-methylamino-N-[(3R,5S)-5-methyl-1-(8-trifluoromethyl-quinolin-5-yl)-piperidin-3-yl]-propionamide], the IC50 at TLR7 is above 150 nM; at TLR8, 75 to 150 nM.

For the molecule `CC(=O)N1CCC(NC(=O)[C@H]2CN(c3ccc(C#N)c4nccnc34)C[C@@H](C)O2)CC1` [Example 242, (2R,6R)-4-(8-Cyano-quinoxalin-5-yl)-6-methyl-morpholine-2-carboxylic acid (1-acetyl-piperidin-4-yl)-amide], the IC50 on TLR7 and on TLR8 was below 75 nM in each case.

`N#Cc1ccc(N2C[C@H](CN3CCC4(CC3)CC(=O)N4)O[C@H](C(F)(F)F)C2)c2nccnc12` (single isomer, unassigned) [Example 363]: the IC50 was below 75 nM at TLR7 and above 150 nM on TLR8.

For the molecule `C[C@@H]1CN(c2ccc(C#N)c3nccnc23)C[C@H](C(=O)NCC(O)C(F)(F)F)O1` (stereo partly drawn) [Example 237, (2R,6R)-4-(8-Cyano-quinoxalin-5-yl)-6-methyl-morpholine-2-carboxylic acid (3,3,3-trifluoro-2-hydroxy-propyl)-amide], the IC50 on TLR7 and at TLR8 was below 75 nM in each case.

On to `C[C@H]1C[C@@H](NC(=O)[C@@H]2CCCN2)CN(c2ccc(C(F)(F)F)c3ncccc23)C1` [Example 176, (S)-Pyrrolidine-2-carboxylic acid [(3R,5S)-5-methyl-1-(8-trifluoromethyl-quinolin-5-yl)-piperidin-3-yl]-amide], for which the IC50 is 75 to 150 nM at TLR7 and below 75 nM at TLR8.

Turning to `C[C@H]1C[C@@H](OCCN2CCCCC2)CN(c2ccc(C(F)(F)F)c3ncccc23)C1` (racemic) [Example 3, 5-[cis-3-methyl-5-[2-(piperidin-1-yl)ethoxy]piperidin-1-yl]-8-(trifluoromethyl)quinolone], the results for the IC50 on TLR7 and at TLR8 were above 150 nM and below 75 nM, respectively.

`C[C@@H](C(=O)N[C@@H]1C[C@H](C(F)(F)F)CN(c2ccc(C#N)c3ncccc23)C1)N1CCN(C)CC1` (single isomer, unassigned) [Example 101]: the IC50 on TLR7 and at TLR8 was below 75 nM each time.

Take `Cc1c(F)cc(N2C[C@@H](C)C[C@@H](NC(=O)[C@@H](N)CC(N)=O)C2)c2cccnc12` [Example 129, (2S)-2-amino-N-[(3R,5S)-1-(7-fluoro-8-methylquinolin-5-yl)-5-methylpiperidin-3-yl]butanediamide]: the IC50 at TLR7 was 75 to 150 nM; at TLR8, below 75 nM.

With `C[C@H]1C[C@@H](NCCNC(N)=O)CN(c2ccc(C(F)(F)F)c3ncccc23)C1` [Example 45, {2-[(3R,5S)-5-Methyl-1-(8-trifluoromethyl-quinolin-5-yl)-piperidin-3-ylamino]-ethyl}-urea], the IC50 on TLR7 and on TLR8 was below 75 nM in each case.

Take `C[C@H]1C[C@@H](NC(=O)C[C@H]2[C@@H]3C[C@H]2CN(C)C3)CN(c2ccc(C(F)(F)F)c3ncccc23)C1` [Example 106, N-[(3R,5S)-5-methyl-1-[8-(trifluoromethyl)quinolin-5-yl]piperidin-3-yl]-2-[(1R,5S,6s)-3-methyl-3-azabicyclo[3.1.1]heptan-6-yl]acetamide]: the IC50 on TLR7 and on TLR8 was below 75 nM throughout.

In the case of `C[C@@H]1CN(c2ccc(C#N)c3nccnc23)C[C@H](CSC[C@@H](O)CO)O1` (single isomer, unassigned) [Example 230], the IC50 at TLR7 and on TLR8 was below 75 nM in each case.

With `C[C@@H]1CN(c2cnc(C#N)c3ncccc23)C[C@H](C(=O)NC[C@H]2CN(C)CCO2)O1` [Example 274, (2R,6R)-4-(8-Cyano-[1,7]naphthyridin-5-yl)-6-methyl-morpholine-2-carboxylic acid ((S)-4-methyl-morpholin-2-ylmethyl)-amide], the IC50 on TLR7 and at TLR8 was below 75 nM each time.

For `CN1CCC(C(=O)N[C@@H]2C[C@H](C(F)(F)F)CN(c3ccc(C#N)c4ncccc34)C2)CC1` [Example 61, 1-Methyl-piperidine-4-carboxylic acid [(3R,5S)-1-(8-cyano-quinolin-5-yl)-5-trifluoromethyl-piperidin-3-yl]-amide], the IC50 at TLR7 and at TLR8 was below 75 nM each time.

`C[C@@H]1CN(c2ccc(C#N)c3ncncc23)C[C@H](CNC(=O)[C@]2(F)CCNC2)O1` (single isomer, unassigned) [Example 345]: the IC50 at TLR7 and at TLR8 was below 75 nM each time.

Regarding `C[C@@H]1CN(c2ccc(C#N)c3nccnc23)C[C@H](C(=O)NC2CCC(=O)NC2=O)O1` (stereo partly drawn) [Example 236, (2R,6R)-4-(8-Cyano-quinoxalin-5-yl)-6-methyl-morpholine-2-carboxylic acid (2,6-dioxo-piperidin-3-yl)-amide], the IC50 at TLR7 and on TLR8 was 75 to 150 nM in each case.

For `C[C@@H]1CN(c2ccc(C#N)c3nccnc23)C[C@H](C(=O)NC[C@H](O)C(F)(F)F)O1` [Example 249, (2R,6R)-4-(8-Cyano-quinoxalin-5-yl)-6-methyl-morpholine-2-carboxylic acid ((S)-3,3,3-trifluoro-2-hydroxy-propyl)-amide], the IC50 at TLR7 and on TLR8 was below 75 nM throughout.

Turning to `C[C@@H](O)[C@H](N)C(=O)N1CCC(CC(=O)N[C@@H]2C[C@H](C(F)(F)F)CN(c3ccc(C#N)c4ncccc34)C2)CC1` [Example 184, 2-[1-((2S,3R)-2-Amino-3-hydroxy-butyryl)-piperidin-4-yl]-N-[(3R,5S)-1-(8-cyano-quinolin-5-yl)-5-trifluoromethyl-piperidin-3-yl]-acetamide], the results for the IC50 at TLR7 and on TLR8 were above 150 nM and 75 to 150 nM, respectively.

Regarding `C[C@@H]1CN(c2cnc(C#N)c3ncccc23)C[C@H](C(=O)NCC2CCCN2C)O1` (stereo partly drawn) [Example 273, (2R,6R)-4-(8-Cyano-[1,7]naphthyridin-5-yl)-6-methyl-morpholine-2-carboxylic acid (1-methyl-pyrrolidin-2-ylmethyl)-amide], the IC50 on TLR7 and on TLR8 was below 75 nM in each case.

The values above are taken from patent US20210300940A1 (Merck Patent GmbH, priority 2018, published 2021).
